Source: US20220193447A1, “METHODS FOR MODULATION OF AND SENSITIZATION TO SERINE AND GLYCINE LIMITATION” (Faeth Therapeutics, Inc., priority 2020, published 2022)
Where a SMILES comes first, the peptide text is derived from it. The star is where a group is joined. Cbz = O=C(OCc1ccccc1)*

Columns and labels:
[1] = system: ATF-4 response; test: Western blots of SSP enzymes and ATF-4 response; assay type: cell-based, human; details: MG-132 10 μM
Description: Protein lysates were processed in RIPA-buffer supplemented with phosphatase inhibitor cocktail and complete protease inhibitors. Lysates were separated using precast NuPAGE 4-12% Bis-Tris Protein gels and transferred to nitrocellulose membranes. Following incubation with primary antibodies, appropriate secondary antibodies were used to detect the proteins. Westerns scanned using the Odyssey CLx or visualized using ECL chemiluminescence detection kits.
Cells were grown for 24 hours in −SG medium or CM and treated with 10 μM PH755 diluted in DMSO or DMSO alone. To evaluate protein synthesis, puromycin (final concentration: 90 μM) was added to each well 10 minutes prior harvesting the cells for western blot analysis, except in the negative control well. Where indicated, cells grown in CM medium were treated with cycloheximide (10 μg/mL) for the last 5 hours providing a control for translation inhibition. Incorporation of puromycin into newly synthesized proteins was assessed by Western blot using an anti-puromycin antibody. To assess the accumulation of short-lived proteins in response to proteasome inhibition, cells grown in −SG medium or CM plus or minus 10 μM PH755 for 24 hours were treated for the last 6 hours with the proteasome inhibitor MG-132 (10 μM) before harvesting the cells for western blot analysis.

[2] = system: IDO1 expression; test: Immunoblotting of IDO1 in human pancreatic cancer cells; assay type: cell-based; details: for IDO1 protein levels: 2D or 3D culture, MG132 20 μM 16 h, bafilomycin A1 100 nM
[3] = system: HT-29 and HCT116 cells; details: supplement alone (1 mM sodium formate or 0.4 mM glycine)
Description: Cells (2×10^4 to 3×10^4 cells/well depending on the cell lines) were plated in 24-well plates in their regular medium. […] For the counting step, cells were trypsinized, suspended in PBS-EDTA, and counted with a CASY Model TT Cell Counter. Relative cell number at each time point was calculated based on the number of cells measured before the medium change.

[4] = system: KPC cells; test: KPC cell proliferation with or without serine; assay type: cell-based, mouse; details: epacadostat 1 μM, −Serine medium, 5 days
Description: KPC cells (tumor cells derived from a pancreatic tumor of a Kras' p53″^t genetically engineered mouse) were seeded into 24-well plates and allowed to adhere overnight. […] Cell number was recorded every 24 h for 5 days. A time zero plate was used to calculate the starting cell number.

[5] = system: IDO1 expression; test: Immunoblotting of IDO1 in KPC cells; assay type: cell-based, mouse

Which results are given for `CC(C)C[C@@H](C=O)NC(=O)[C@H](CC(C)C)NC(=O)[C@H](CC(C)C)NC(=O)OCc1ccccc1` [MG-132] (Cbz-Leu-Leu-Leu-aldehyde)?
ATF-4 protein level ([1]; cells in complete medium): strong accumulation of ATF-4; ATF-4 protein levels and ASNS, PSAT expression ([1]; cells in −SG medium plus PH755): no restoration of ATF-4 protein levels; IDO1 protein levels [2]: no effect on IDO1 protein levels

With `CC(C)(C)c1nc2c3cc[nH]c(=O)c3c3cc(F)ccc3c2[nH]1` [JAKi] as the molecule, how does the “up-regulation of IDO1 protein levels in AI-grown cells” value ([2]; CFPAC-1 or HPAF-II cells, JAKi 1 μM, 16 h) read?
Its value is “blocked”.

For `CO/C1=C\C(C)=C\[C@@H](C)[C@@H](O)[C@@H](C)C/C(C)=C/C=C/[C@H](OC)[C@@H]([C@@H](C)[C@@H](O)[C@H](C)[C@@]2(O)C[C@@H](O)[C@H](C)[C@@H](C(C)C)O2)OC1=O` [bafilomycin, bafilomycin A1], which IDO1 protein levels [2] is on record?
The IDO1 protein levels was “no effect on IDO1 protein levels”.

Which “growth of −SG plus PH755 treated cells” value [3] does the source give for `NCC(=O)O` [glycine] here?
The value was “did not restore growth”.

Which “antiproliferative effect of serine starvation” value [4] does the source give for `NS(=O)(=O)NCCNc1nonc1C(=NO)Nc1ccc(F)c(Br)c1` [epacadostat] here?
Its value is “enhances the antiproliferative effect”.

Which IDO1 expression ([2]; panel of human pancreatic cancer cells, IFNγ 1 ng/ml, 24 h) does the source give for “human form of IFNγ: human cytokine IFNγ, canonical activator of IDO1” here?
Its IDO1 expression is “consistently increased IDO1 expression”.

And the IDO1 expression ([5]; murine cells, human form of IFNγ)?
The IDO1 expression was “did not impact IDO1 expression in murine cells”.

For `O=C[O-].[Na+]` [formate, sodium formate], which “growth of −SG plus PH755 treated cells” value [3] is on record?
The value was “did not restore growth”.

B1: murine form of cytokine IFNγ: murine cytokine IFNγ, a canonical activator of IDO1 (protein, UniProt P01580 23-155, looked up)
Interferon gamma: HGTVIESLESLNNYFNSSGIDVEEKSLFLDIWRNWQKDGDMKILQSQIISFYLRLFEVLKDNQAISNNISVIESHLITTFFSNSKAKKDAFMSIAKFEVNNPQVQRQAFNELIRVVHQLLPESSLRKRKRSRC
For B1, which IDO1 expression ([5]; KPC cells, murine IFNγ 1 ng/ml, 24 h) is on record?
Its IDO1 expression is “increased IDO1 expression in vitro”.
